Test results as given in patent publication US6914160B1, “Oxytocin inhibitors” (Pfizer Inc, priority 2002, dated 2005).

Target: T1, Oxytocin Receptor (Homo sapiens, UniProt P30559)
T1 construct: expressed in transfected cells; host or cells: CHO cells (membrane preparation)
T1 sequence (P30559 1-389): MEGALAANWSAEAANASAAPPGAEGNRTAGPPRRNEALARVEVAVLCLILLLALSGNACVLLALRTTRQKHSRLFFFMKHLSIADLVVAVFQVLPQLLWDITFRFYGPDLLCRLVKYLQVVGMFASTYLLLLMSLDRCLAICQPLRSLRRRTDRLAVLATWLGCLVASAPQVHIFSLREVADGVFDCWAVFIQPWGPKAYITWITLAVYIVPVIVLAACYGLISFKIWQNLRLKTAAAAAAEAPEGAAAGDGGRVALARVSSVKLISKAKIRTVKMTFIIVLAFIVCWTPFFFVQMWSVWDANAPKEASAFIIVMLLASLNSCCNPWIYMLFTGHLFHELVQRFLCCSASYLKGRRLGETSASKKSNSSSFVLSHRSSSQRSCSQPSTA
Assay: Oxytocin Receptor Ligand Binding IC50 Assay (125I-OVTA SPA, CHO cell membranes)
Protocol: A. Oxytocin Receptor Ligand Binding IC50 Assay
• ii) Compound Dilution (Final concentration of 10 μM in the assay) • a) HTA stock compounds at 4 mM in 100% DMSO • b) Dilute compounds to 200 μM in dH2O. • c) Further dilute compounds to 100 μM in 100 mM Tris-HCl, pH 7.8, 20 mM MgCl2. This gives final concentrations of 2.5% DMSO, 50 mM Tris-HCl, pH 7.8, 10 mM MgCl2. • d) Using the diluted stock, prepare 1:2 dilutions over 10 points in 50 mM Tris-HCl, pH 7.8, 10 mM MgCl2, 2.5% DMSO with the TECAN Genesis. • e) Dispense 10 μl of the compound into a 384 well Optiplate according to the plate layout required for analysis by ECADA leaving space for the standard (arg^8)-vasotocin IC50. […] Protein concentrations are then measured and the membrane suspension is finally frozen in aliquots at a minimum of 5 mg/ml at −80° C. vi) Assay • Membranes are thawed on ice before diluting to 1 mg/ml in assay buffer. […] A 5 μl sample is then counted in duplicate using liquid scintillation counting (protocol 61 on Wallac Counter) and the concentration of the ligand is calculated (see example below). […] Using the measured concentration, the ^125I-OVTA is diluted to 0.3 nM in assay buffer. […]

Ki	Structure (SMILES)
9.4 nM	COc1cccc(C(C(N)=O)N(Cc2ccc(C)cc2)C(=O)c2c(C)cc(C)nc2N)c1 (single isomer, unassigned) [Example 258, (R or S)-2-Amino-N-[carbamoyl-[(3-methoxyphenyl)-methyl]-4,6-dimethyl-N-(4-methyl-benzyl)-nicotinamide]
9.4 nM	Cc1ccc(CN(C(=O)c2c(C)cc(C)nc2N)C(C(N)=O)c2ccc3c(c2)OCCO3)cc1 (centres unmarked) [Example 257, 2-Amino-N-[carbamoyl-(2,3-dihydro-benzo[1.4]dioxin-6-yl)-methyl]-4,6-dimethyl-N-(4-methyl-benzyl)-nicotinamide]
